From the METLIN SMRT retention time set (Domingo-Almenara et al. 2019)

Assay: gradient 5% acetonitrile 3 min, to 50% in 2 min, to 85% in 15 min, held 3 min, 100 µL/min
Settings: column: Zorbax Extend-C18 2.1 x 50 mm; eluents: water / acetonitrile, 0.1% formic acid
Summary of the method: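 Retention time was recorded from adduct peaks, which were picked computationally and each inspected manually. Pure standards ran in mixtures of ~100 molecules on HPLC coupled to a quadrupole time-of-flight mass spectrometer, in positive and negative ionization mode, through a Zorbax Extend-C18 column (2.1 × 50 mm, 1.8 μm) at 100 μL/min. Eluents were water and acetonitrile, each with 0.1% formic acid.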

| Structure (SMILES) | RP-LC retention time [s] |
| --- | --- |
| COc1ccc(NC(=O)Cn2c(=O)n(-c3ccccc3)c(=O)c3c2cc(C)n3C)cc1OC | 791 |
| CCc1noc(C2(NC(=O)c3cccc(N(C)C)c3)CCCCC2)n1 | 867 |
| O=C(Nc1nc2ccccc2s1)c1ccc(S(=O)(=O)N2CCc3ccccc32)cc1 | 1040 |
| CCc1cccc(N2C(=O)CN(S(C)(=O)=O)CC2(C)C(=O)NCc2ccccc2)c1 (stereo not given) | 804 |
| Cc1nc([C@@H]2CN(C(=O)C(C)(C)C)C[C@H]2C(N)=O)n[nH]1 | 564 |
| CNC(=O)[C@@H]1CN(C(=O)c2ccc(Cl)s2)C[C@H]1c1nc(COC)no1 | 698 |
| CCn1c(C(=O)N2CCCC(C(=O)N3CCN(c4ccc(OC)cc4)CC3)C2)cc2sccc21 (stereo not given) | 885 |
| Cc1ccc(C)c(Nc2c(-c3ccc(N4CCOCC4)cc3)nc3ncccn23)c1 | 746 |
| Cc1ccccc1Nc1c(-c2ccc(N3CCOCC3)cc2)nc2ccc(Cl)cn12 | 805 |
| CCN1CCN(C(=O)c2csc(N3CCN(c4ccc(OC)cc4)CC3)n2)CC1 | 654 |
| O=C(NCCN1CCOCC1)c1ccc(-c2c(-c3ccc(F)cc3)ncn2C2CCCCC2)o1 | 605 |
| CCOC(=O)c1nc(N2CCOCC2)c2ccccc2n1 | 626 |
| COc1ccc(C(=O)Cn2c(=O)n(Cc3ccc4c(c3)OCO4)c(=O)c3ncccc32)cc1 | 819 |
| CC(C)CC(=O)NCC12CCCC=C1N(C)C(=O)CC2 (stereo not given) | 726 |
| CN1CCCCCCN(C(=O)c2cnccn2)[C@H]2CCC[C@H]2C1=O | 649 |
| CC(=O)N1CCCN(C(=O)c2ccc(C#N)cc2)CC1 | 589 |
| O=C(NCC1(c2cccs2)CCOCC1)c1cc(=O)c2ccccc2o1 | 716 |
| COc1ccc2c(c1)-c1nc(NC(=O)c3ccccc3Cl)sc1CC2 | 1110 |
| Cc1ccc(CN2CC(c3nc(CCOCc4ccccc4)no3)C2)s1 | 716 |
| O=C(NC1CCN(C(=O)c2cc(-c3cccs3)[nH]n2)CC1)c1ccccc1Cl | 718 |
| CCCC(=O)N1CCc2c([nH]c3ccccc23)C1c1ccc(OC)cc1 (stereo not given) | 720 |
| O=c1c(NC2CCCC2)nc2ccncc2n1Cc1ccccc1 | 682 |
| CCS(=O)(=O)Nc1ccc2nc(N3CCN(c4ccccc4OC)CC3)cc(C(=O)O)c2c1 | 633 |

| Structure (SMILES) | RP-LC retention time [s] |
| --- | --- |
| COC(=O)C1=CN(c2ccc(OC)cc2OC)c2cc(F)ccc2S1(=O)=O | 875 |
| CCOC(=O)c1nc(Nc2ccc(C(=O)OC)cc2)c2ccccc2n1 | 841 |
| COc1ccc(-c2nnc(COc3ccc(NC(=O)c4ccsc4)cc3)o2)cc1 | 892 |
| COc1ccc(Cl)cc1S(=O)(=O)N1CCCC(C)(C(=O)NCc2ccccc2)C1 (stereo not given) | 981 |
| Cc1ccc(C(=O)N2C[C@@H]3C[C@H](NC(=O)c4cccnc4)[C@H]2C3)cc1F | 609 |
| CCN(CC)C(=O)C1CCN(S(=O)(=O)c2ccc3c(c2)sc(=O)n3C(C)C)CC1 | 873 |
| CCOCC(=O)N1CCC2(CC1)CC(O)(CC)CCO2 (stereo not given) | 614 |
| COc1ccc(-n2ccnc(NC(=O)Nc3ccc(F)cc3)c2=O)cc1OC | 848 |
| O=C(NC(=O)N1CCN(Cc2ccccc2)CC1)c1ccccc1 | 549 |
| COc1ccc(-c2nc3cnccn3c2Nc2cccc(Cl)c2)cc1 | 961 |
| Cc1noc(C2CN(S(=O)(=O)c3ccccc3)CC23CCOCC3)n1 (stereo not given) | 767 |
| O=c1ccc(-c2nc(-c3ccc(Br)cc3)no2)cn1Cc1cc(=O)n2ccccc2n1 | 918 |
| COc1ccc(-c2cn3c(CC(=O)N4CCN(c5ccccc5F)CC4)csc3n2)cc1OC | 780 |
| CCC(=O)N1CCc2ccccc2C1C(=O)NCc1ccc(Br)cc1 (stereo not given) | 887 |
| O=C(NC1CC1)[C@@H]1C[C@H](Oc2ccccc2)CN1C(=O)c1cccs1 | 699 |
| Cc1nc(-c2ccccc2)cc2nn(CC(=O)N3CCOCC3)c(=O)n12 | 700 |
| Cc1ccc(-c2ccc(N3CCCC(C(=O)NCCCOC(C)C)C3)nn2)cc1C (stereo not given) | 708 |
| COCCc1noc(COC2CCN(C(=O)C3CCCO3)CC2)n1 (stereo not given) | 618 |
| O=C(NCCc1ccc(F)cc1)C(=O)Nc1cccc(N2CCCC2=O)c1 | 771 |
| COc1ccc(C(O)CN2CCN(C3CCCCC3)CC2)cc1OC (stereo not given) | 541 |
| Cc1ccsc1C(=O)N1CCC2(CC1)NC(=O)N(Cc1ccc(Cl)cc1)C2=O | 844 |
| O=C(NCCn1nnc2cc(C(=O)N3CCCC3)ccc21)Nc1cccc(Br)c1 | 722 |
